Source: the supplement of paper PMC10883282

Legend:
Test in all cases: relative viability vs DMSO control (72 h) (fraction); higher = more viable cells
[1] = tested on: KHOS-240S
How it was run: (§1)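 Relative viability was measured with ATPLite and expressed as percent growth, averaged across up to triplicate wells. Sarcoma cell lines had been seeded in 384-well plates to reach 80–90% confluence, dosed after 24 h, and incubated 72 h at 37 °C, 5% CO2. All data were rescaled on a scale where 1 is full and 0 is none.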

[2] = tested on: RD
How it was run: as §1

[3] = tested on: SYO-1
How it was run: as §1

[4] = tested on: MES-SA
How it was run: as §1

[5] = tested on: SW1353
How it was run: as §1

[6] = tested on: SW982
How it was run: as §1

[7] = tested on: VA-ES-BJ
How it was run: as §1

[8] = tested on: HT1080
How it was run: as §1

[9] = tested on: SK-LMS-1
How it was run: as §1

[10] = tested on: RD-ES
How it was run: as §1

[11] = tested on: G401
How it was run: as §1

[12] = tested on: SK-ES-1
How it was run: as §1

O=C1NC(=O)[C@@H](c2cn3c4c(cccc24)CCC3)[C@@H]1c1c[nH]c2ccccc12 [Tivantinib]
Settings	relative viability
[1], 0.00017 µM	1.03
[1], 0.00051 µM	1.03
[1], 0.00152 µM	1.05
[1], 0.00457 µM	1.04
[1], 0.01372 µM	1.05
[1], 0.04115 µM	1.01
[1], 0.1235 µM	0.983
[1], 0.3704 µM	0.791
[1], 1.111 µM	0.271
[1], 3.333 µM	0.25
[1], 10 µM	0.176
[2], 0.00017 µM	1.05
[2], 0.00051 µM	1.09
[2], 0.00152 µM	1.09
[2], 0.00457 µM	1.1
[2], 0.01372 µM	1.12
[2], 0.04115 µM	1.04
[2], 0.1235 µM	1.04
[2], 0.3704 µM	0.81
[2], 1.111 µM	0.371
[2], 3.333 µM	0.219
[2], 10 µM	0.267
[3], 0.00017 µM	0.934
[3], 0.00051 µM	0.928
[3], 0.00152 µM	0.95
[3], 0.00457 µM	0.924
[3], 0.01372 µM	0.911
[3], 0.04115 µM	0.894
[3], 0.1235 µM	0.861
[3], 0.3704 µM	0.716
[3], 1.111 µM	0.327
[3], 3.333 µM	0.271
[3], 10 µM	0.28
[4], 0.00017 µM	0.9028
[4], 0.00051 µM	0.908
[4], 0.00152 µM	0.92
[4], 0.00457 µM	0.919
[4], 0.01372 µM	0.914
[4], 0.04115 µM	0.888
[4], 0.1235 µM	0.919
[4], 0.3704 µM	0.406
[4], 1.111 µM	0.285
[4], 3.333 µM	0.205
[4], 10 µM	0.1134
[5], 0.00017 µM	0.982
[5], 0.00051 µM	0.9442
[5], 0.00152 µM	0.985
[5], 0.00457 µM	0.96
[5], 0.01372 µM	0.99
[5], 0.04115 µM	0.963
[5], 0.1235 µM	0.955
[5], 0.3704 µM	0.88
[5], 1.111 µM	0.666
[5], 3.333 µM	0.45
[5], 10 µM	0.453
[6], 0.00017 µM	1.05
[6], 0.00051 µM	1.04
[6], 0.00152 µM	1.04
[6], 0.00457 µM	1.07
[6], 0.01372 µM	1.06
[6], 0.04115 µM	1.04
[6], 0.1235 µM	1.03
[6], 0.3704 µM	0.766
[6], 1.111 µM	0.378
[6], 3.333 µM	0.272
[6], 10 µM	0.2611
[7], 0.00017 µM	1.01
[7], 0.00051 µM	1.03
[7], 0.00152 µM	1.02
[7], 0.00457 µM	1.03
[7], 0.01372 µM	1.01
[7], 0.04115 µM	1.01
[7], 0.1235 µM	0.991
[7], 0.3704 µM	0.76
[7], 1.111 µM	0.464
[7], 3.333 µM	0.439
[7], 10 µM	0.397
[8], 0.00017 µM	1.047
[8], 0.00051 µM	1.02
[8], 0.00152 µM	1.03
[8], 0.00457 µM	1.04
[8], 0.01372 µM	1.01
[8], 0.04115 µM	1.04
[8], 0.1235 µM	1.03
[8], 0.3704 µM	1.02
[8], 1.111 µM	0.287
[8], 3.333 µM	0.128
[8], 10 µM	0.0702
[9], 0.00017 µM	1
[9], 0.00051 µM	1.01
[9], 0.00152 µM	0.972
[9], 0.00457 µM	1.002
[9], 0.01372 µM	1
[9], 0.04115 µM	0.965
[9], 0.1235 µM	0.887
[9], 0.3704 µM	0.5799
[9], 1.111 µM	0.497
[9], 3.333 µM	0.385
[9], 10 µM	0.301
[10], 0.00017 µM	0.948
[10], 0.00051 µM	0.967
[10], 0.00152 µM	0.986
[10], 0.00457 µM	1
[10], 0.01372 µM	1
[10], 0.04115 µM	1.01
[10], 0.1235 µM	0.977
[10], 0.3704 µM	0.94
[10], 1.111 µM	0.129
[10], 3.333 µM	0.071
[10], 10 µM	0.0364
[11], 0.00017 µM	1
[11], 0.00051 µM	1.01
[11], 0.00152 µM	1.03
[11], 0.00457 µM	1.03
[11], 0.01372 µM	1.02
[11], 0.04115 µM	0.982
[11], 0.1235 µM	1.05
[11], 0.3704 µM	0.941
[11], 1.111 µM	0.573
[11], 3.333 µM	0.534
[11], 10 µM	0.367
[12], 0.00017 µM	1.01
[12], 0.00051 µM	1.04
[12], 0.00152 µM	1
[12], 0.00457 µM	1.08
[12], 0.01372 µM	1.03
[12], 0.04115 µM	1.02
[12], 0.1235 µM	0.9862
[12], 0.3704 µM	0.645
[12], 1.111 µM	0.0656
[12], 3.333 µM	0.0193
[12], 10 µM	0.0196
